What all share (format): in vivo
Assay [1] deals with Phakopsora pachyrhizi. The experiment in a line: whole plant or invertebrate. The conditions noted are these: in Glycine max, foliar, read-out: % activity observed. The source says: (§1) A synergistic effect exists whenever the action of an active ingredient combination is greater than the action expected from the effect of the individual components.
(§2) The action to be expected (E) for a given active ingredient combination obeys the so-called COLBY formula and can be calculated as follows (COLBY, S. R. “Calculating synergistic and antagonistic responses of herbicide combination”. Weeds, Vol. 15, pages 20-22; 1967):
(§3) ppm=milligrams of active ingredient (=a.i.) per litre of spray mixture X=% action by active ingredient I using p ppm of active ingredient Y=% action by active ingredient II using q ppm of active ingredient.
(§4) According to Colby, the expected (additive) action of active ingredients I+II using p+q ppm of active ingredient is
(§5) If the action actually observed (O) is greater than the expected action (E), then the action of the combination is superadditive, i.e. there is a synergistic effect.
(§6) A series of leaf disc tests were conducted to show the effects of tank mixtures of glyphosate and the ortho-substituted phenyl-amide (OPA) fungicides represented by structures F-5 and F-9 on Asian soybean rust. The soybean variety tested was brand Williams82 glyphosate sensitive soybean. The leaf source for the testing was the first trifoliate leaf. Six (6) repetitions for each formulation and at each rate were conducted. Treatment of the leaf with the recited active ingredients was conducted 4 weeks after planting. The leaves were inoculated with Phakopsora pachyrhizi (Asian soybean rust (ASR)) one (1) day after treatment. Evaluation of the leaf was conducted ten (10) days after inoculation and the mean percent infestation of the six repetitions is reported in Tables 3 and 4.
The glyphosate source was Touchdown® HiTech herbicide (Syngenta Corp.), containing the potassium salt of glyphosate and no adjuvant system. The compound OPA F-5 used was a compound of formula F-5, wherein the ratio of racemic compounds of formula F-3 (syn) to racemic compounds of formula F-4 (anti) was 9:1. The compound OPA F-9 used was a compound of formula F-9, wherein the ratio of racemic compounds of formula F-7 (trans) to racemic compounds of formula F-8 (cis) was around 100:1. The fungicides used were EC100 formulations of OPA F-5 and OPA F-9 which are emulsion concentrates containing 100 ga.i./L. The rates of the active ingredients used in the tests are set in the table as mg active ingredient (a.i.)/L.

Assay [2] deals with Puccinia recondita. As to the kind of experiment: Greenhouse trial with Puccinia recondita on glyphosate sensitive wheat (Example 3). The conditions noted are these: read-out: % activity observed.
From the text: as §1, §2, §3, §4, §5
Greenhouse tests were conducted to show the effects of tank mixtures of glyphosate and the ortho-substituted phenyl-amide (OPA) fungicides represented by structures F-10, F-5 and F-9 on cereal rust Puccinia recondita. The wheat variety tested was brand Kanzler glyphosate sensitive wheat. Three (3) repetitions for each formulation and at each rate were conducted. Treatment of the plants with the recited active ingredients was conducted preventatively 16 days after planting. The leaves were inoculated with Puccinia recondita one (1) day after treatment. Evaluation of the leaf was conducted […] after inoculation and the mean percent infestation of the three repetitions is reported in Tables 5-7.
The glyphosate source was Zapp® QI herbicide containing the potassium salt of glyphosate as well as an adjuvant system. The compound OPA F-5 used was a compound of formula F-5, wherein the ratio of racemic compounds of formula F-3 (syn) to racemic compounds of formula F-4 (anti) was 9:1. The compound OPA F-9 used was a compound of formula F-9, wherein the ratio of racemic compounds of formula F-7 (trans) to racemic compounds of formula F-8 (cis) was around 100:1. The fungicides used were EC 100 formulations of OPA F-10, OPA F-5 and OPA F-9 which are emulsion concentrates containing 100 ga.i./L. The rates of the active ingredients used in the tests are set in Tables 5-7 as mg active ingredient (a.i.)/L.

For assay [3], the system named is Phakopsora pachyrhizi. The experiment in a line: Leaf disc test with Phakopsora pachyrhizi on glyphosate sensitive soybean, leaf disks treated (Example 4).
From the text: as §1, §2, §3, §4, §5
as §6, with “glyphosate and pesticides or plant activators on Asian” for “glyphosate and the ortho-substituted phenyl-amide (OPA) fungicides represented by structures F-5 and F-9 on Asian”, “the leaf disks with the” for “the leaf with the”, “in Tables 8-11.” for “in Tables 3 and 4.”
As glyphosate source Touchdown® HiTech or Zapp® QI was used. The fungicides were used as commercial formulations: Bion® WG50 plant activator comprising acibenzolar-S-methyl (Syngenta Corp.), Opus® SC125 fungicide comprising epoxiconazole commercially (BASF AG), Tilt® EC250 fungicide comprising propiconazole (Syngenta Corp.), Quadris® SC250 fungicide comprising azoxystrobin (Syngenta Corp.). The rates of the active ingredients used in the tests are set in Tables 8-11 as mg active ingredient (a.i.)/L.

The mark [4] stands for this setting: Glyphosate TD HiTech SL523 2.5 mg a.i./L, Table 9 (check 77).
[5] abbreviates: Glyphosate TD HiTech SL523 2.5 mg a.i./L, Table 11 (check 80).
Where [6] appears, read: Glyphosate TD HiTech SL523 7.4 mg a.i./L, Table 11 (check 80).
Setting [7] is: Glyphosate TD HiTech SL523 7.4 mg a.i./L, Tables 9-10 (check 77).
[8] abbreviates: Glyphosate TD HiTech SL523 22.2 mg a.i./L.
Where [9] appears, read: Glyphosate Zapp QI SL500 22.2 mg a.i./L.
The mark [10] stands for this setting: Glyphosate Zapp QI SL500 66.7 mg a.i./L.

The structures appear in SMILES notation.

On to `O=C(O)CNCP(=O)(O)O` [Glyphosate, glyphosate], for which the inhibition at 2.5 µg/mL in assay [1] (Glyphosate 2.5 mg a.i./L (Touchdown HiTech)) was determined as 0%. In addition, the inhibition at 7.4 µg/mL in assay [1] (Glyphosate 7.4 mg a.i./L (Touchdown HiTech)) was determined as 0%. Further, in assay [1] (Glyphosate 22.2 mg a.i./L (Touchdown HiTech)), the inhibition at 22.2 µg/mL amounted to 14%. Further, the inhibition at 66.7 µg/mL in assay [1] (Glyphosate 66.7 mg a.i./L (Touchdown HiTech)) is 0%. Further, the inhibition at 200 µg/mL in assay [1] (Glyphosate 200.0 mg a.i./L (Touchdown HiTech)) was determined as 0%; in assay [2] (Glyphosate 200 mg a.i./L (Zapp QI)), 42%. In assay [1] (Glyphosate 600 mg a.i./L (Touchdown HiTech)), the inhibition at 600 µg/mL is 34%. Also, the inhibition at 66 µg/mL in assay [2] (Glyphosate 66 mg a.i./L (Zapp QI)) turned out to be 0%. Moreover, the Activity observed % in assay [3] (setting [4]) is given as 0%; in assay [3] (setting [5]) it was 8%; in assay [3] (setting [6]), 0%; in assay [3] (setting [7]), 0%; in assay [3] (setting [8]) it was 0%; in assay [3] (setting [9]) it was 1%. Moreover, in assay [3] (setting [10]), the Activity observed % came to 1%. In addition, the Leaf attack % in assay [3] (setting [4]) worked out at 80%; in assay [3] (setting [5]), 74%; in assay [3] (setting [6]), 80%; in assay [3] (setting [7]), 80%; in assay [3] (setting [8]), 80%; in assay [3] (setting [9]), 68%. The Leaf attack % in assay [3] (setting [10]) came out at 68%.

These data come from patent US20090023687A1, “Method for Controlling Phytopathogenic Organisms” (SYNGENTA CROP PROTECTION, INC., priority 2005, published 2009).
